Our source for the GI50 and TGI values is PubChem BioAssay (NCI).

Experiment in all cases: NCI-60 cell line screen, 48 h
Assay [1] relates to OVCAR-8 ovarian.
Assay [2] deals with NCI/ADR-RES ovarian.
The test system of assay [3] is U251 CNS.
Assay [4] relates to NCI-H226 lung.
Assay [5] relates to LOX IMVI melanoma.
The subject of assay [6] is CCRF-CEM leukemia.
Assay [7] deals with SR leukemia.

Several values for one entry are separate records, joined by “and”; a condition that tells them apart may be missing. Equal entries are not always repeated.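 Interpolation was linear, between the two tested concentrations surrounding the appropriate level; five concentrations were tested over 48 hours in 96-well plates. Here, GI50 denotes the concentration required for 50% inhibition of growth. Definition used: TGI = concentration required for complete inhibition of growth.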 A value given as a limit tells only on which side of the number the result lay.

For the molecule `CC(C)(C)OC(=O)Nc1ccc2c(c1)C(NC(=O)Nc1cccc(C#N)c1)CC(C)(C)O2` (stereo not given), the GI50 in assay [1] was 3.13 µM; in assay [2], 2.78 µM; in assay [3], 1.76 µM; in assay [4], 2.29 µM; in assay [5], 1.53 µM; in assay [6], 3.8 µM. Moreover, the GI50 in assay [7] is 2.18 µM. For the same molecule, the TGI was 55.7 µM in assay [1]; over 64.6 µM in assay [2]; over 58.2 µM in assay [3]; 42.8 µM in assay [4]; over 60.5 µM in assay [5]; over 100 µM in assay [6]. Further, the TGI in assay [7] stood at 30 µM.

For the molecule `CC[C@H](C)[C@H](NC(=O)c1cccn1C)C(=O)N(C)[C@H](C[C@@H](OC(C)=O)c1nc(C(=O)N[C@@H](Cc2ccccc2)C[C@H](C)C(=O)OC)cs1)C(C)C`, the GI50 in assay [1] was 0.354 µM; in assay [2] it was 1.2 µM; in assay [3], 0.24 µM; in assay [4], 1.17 µM; in assay [5] it was 0.382 µM; in assay [6], 0.138 µM. Further, the GI50 in assay [7] was 0.0546 µM. For the same molecule, the TGI in assay [1], in assay [2], in assay [3], in assay [4], in assay [5] and in assay [6] was over 33.3 µM in each case. This molecule displayed a TGI in assay [7] of over 33.3 µM.

Take `CC(C)(C)OC(=O)N[C@@H](Cc1ccccc1)C(=O)N(Cc1ccccc1)C1(C(=O)NCc2ccccc2)CCN(Cc2ccccc2)CC1`: the GI50 in assay [1] is 3.51 µM; in assay [2] it was 2.85 µM; in assay [3], 3.19 µM; in assay [4], 3.2 µM; in assay [5], 3.65 µM; in assay [6], 3.35 µM. Besides, the GI50 in assay [7] is 2.33 µM. For the same molecule, the TGI was over 100 µM in assay [1]; 46.9 µM in assay [2]; over 100 µM in assay [3]; over 100 µM in assay [4]; 21.2 µM in assay [5]; over 100 µM in assay [6]. In assay [7], this molecule gave a TGI of 7.51 µM.

For `O=C(O)c1ccc(SSc2ccc(C(=O)O)cn2)nc1`, the TGI in assay [1], in assay [2], in assay [3], in assay [4], in assay [5] and in assay [6] was over 100 µM each time. The molecule further came in with a TGI in assay [7] of over 100 µM.

Consider `CC(SCc1ccccc1)C(=O)O` (stereo not given), for which the TGI in assay [1], in assay [2], in assay [3], in assay [4], in assay [5] and in assay [6] was over 100 µM throughout. The TGI in assay [7] is over 100 µM.

With `O=c1/c(=N\Nc2ccccc2)c2cccc3ccc4cccc1c4c32`, the TGI in assay [1], in assay [2], in assay [3], in assay [4], in assay [5] and in assay [6] was over 100 µM throughout. Also, the TGI in assay [7] was over 100 µM.

Take `COc1ccc(S(=O)(=O)N(C(C)=O)c2ccccc2/C=C/c2cc[n+]([O-])cc2)cc1`: the GI50 in assay [1] was 1.11 µM; in assay [2], 2.51 µM; in assay [3], 0.504 µM; in assay [4] it was 2.48 µM; in assay [5], 0.955 µM; in assay [6] it was 0.762 µM. In addition, the GI50 in assay [7] was 0.23 µM. The TGI in assay [1] was over 10 µM; in assay [2], over 10 µM; in assay [3], over 10 µM; in assay [4], over 10 µM; in assay [5], over 10 µM; in assay [6], over 7.66 µM. Moreover, in assay [7], the TGI was over 10 µM.

Regarding `O=P(O)(O)OCC1OC(n2cnc3c(NCc4ccccc4)ncnc32)C(O)C1O` (stereo not given), the GI50 was 0.587 µM in assay [1]; 1.19 µM in assay [2]; 5.21 µM in assay [3]; 2.26 µM in assay [4]; 0.334 µM in assay [5]; 3.76 µM in assay [6]. The GI50 in assay [7] is 3.34 µM. In addition, the TGI was 6.92 µM in assay [1]; 30.7 µM in assay [2]; over 100 µM in assay [3]; 6.48 µM in assay [4]; 1.47 µM in assay [5]; over 100 µM in assay [6]. Also, in assay [7], the TGI is over 64.2 µM.

Turning to `O=C(/C=C/C12c3ccccc3C(c3ccccc31)C1C(=O)NC(=O)C12)c1ccccc1` (stereo not given), the GI50 in assay [1] is 1.72 µM; in assay [2], 1.92 µM; in assay [3], 1.55 µM; in assay [4], 2.28 µM; in assay [5] it was 1.63 µM; in assay [6], 2.17 µM. Further, the GI50 in assay [7] was 1.57 µM. In addition, the TGI came out at 5.1 µM in assay [1]; 5.73 µM in assay [2]; 2.96 µM in assay [3]; 6.51 µM in assay [4]; 3.12 µM in assay [5]; 12.5 µM in assay [6]. The molecule also returned a TGI in assay [7] of 17.6 µM.

On to `C[C@@H]1CC[C@@]2(NC1)O[C@H]1C[C@H]3[C@@H]4CC[C@H]5C[C@@H](O)CC[C@]5(C)[C@H]4CC[C@]3(C)[C@H]1[C@@H]2C`, for which the TGI in assay [1] was 54.7 µM; in assay [2], over 100 µM; in assay [3], over 100 µM; in assay [4] it was over 100 µM; in assay [5], over 100 µM; in assay [6] it was over 100 µM. In assay [7], this molecule came in with a TGI of over 100 µM.

Take `CN(C)CCCNc1nc2ccccc2c2[nH]c3ccccc3c12`: the GI50 in assay [1] is 0.917 µM; in assay [2], 0.769 µM; in assay [3] it was 0.679 µM; in assay [4] it was 1.26 µM; in assay [5] it was 0.75 µM; in assay [6] it was 0.206 µM. For the same molecule, the GI50 in assay [7] is 0.616 µM. Besides, the TGI in assay [1] is 6.65 µM; in assay [2], 4.08 µM; in assay [3], 2.59 µM; in assay [4], 4.22 µM; in assay [5], 1.64 µM; in assay [6] it was 1.38 µM. Besides, the TGI in assay [7] is 50 µM.

For the molecule `COC(=O)[C@H](Cc1cn(C)cn1)NC(=O)[C@H](Cc1ccccc1)NC(=O)Nc1cc(C(F)(F)F)cc(C(F)(F)F)c1`, the GI50 in assay [1] is 8.26 µM and 9.71 µM; in assay [2], 23.9 µM; in assay [3], 11.9 µM; in assay [4], 19.8 µM; in assay [5], 2.5 µM and 7.46 µM; in assay [6], 3.9 µM and 8.86 µM. Further, the GI50 in assay [7] is 2.54 µM and 2.21 µM. In addition, the TGI in assay [1] was 22.7 µM; in assay [2] it was 61.4 µM; in assay [3], 24.6 µM; in assay [4], 43.8 µM; in assay [5], 9.27 µM and 20.6 µM; in assay [6] it was 24.8 µM. In addition, the TGI in assay [7] was 6.07 µM and 5.05 µM.
